According to article PMC3402509 (Investigational New Drugs, 2011):
Read-outs that look alike come from different tables or passages of the source.

What was measured:
[1] = Dasatinib pharmacokinetic studies in plasma; type: in vivo, patients; conditions: for Cmax: Cmax Geomean (%CV)
SFK PY-416 (P-SFK) = assay: P-SFK peripheral blood mononuclear cell; type: in vivo, patients; conditions: for P-SFK levels in PBMCs compared to same day pre-dasatinib dosing levels: day 15 (with cetuximab)
NSCLC = conditions: dasatinib monotherapy, phase II; cited from earlier work

Cc1nc(Nc2ncc(C(=O)Nc3c(C)cccc3Cl)s2)cc(N2CCN(CCO)CC2)n1 [dasatinib, N-(2-chloro-6-methyl-phenyl)-2-(6-(4-(2-hydroxyethyl)-piperazin-1-yl)-2-methylpyrimidin-4-ylamino)thiazole-5-carboxamide]
T-HALF Mean (SD) ([1]; 100 mg oral, Day 0 (alone), N=3): 6.8 (0.1) h | T-HALF Mean (SD) ([1]; 100 mg oral, Day 15 (with cetuximab), N=3): 6.4 (0.1) h | T-HALF Mean (SD) ([1]; 150 mg oral, Day 0 (alone), N=18): 5.2 (1.0) h | T-HALF Mean (SD) ([1]; 200 mg oral, Day 0 (alone), N=3): 5.1 (0.6) h | half-life ([1]; human, plasma, po): 5 to 6 h | Cmax ([1]; human, plasma, po, 100 mg, 100 mg oral, Day 0 (alone), N=3): 101 ng/mL | Tmax ([1]; human, plasma, po, 100 mg, Tmax Med (Min, Max), 100 mg oral, Day 0 (alone), N=3): 1 h | Cmax ([1]; human, plasma, po, 150 mg, 150 mg oral, Day 0 (alone), N=18): 144 ng/mL | Tmax ([1]; human, plasma, po, 150 mg, Tmax Med (Min, Max), 150 mg oral, Day 0 (alone), N=18): 1.5 h | Cmax ([1]; human, plasma, po, 200 mg, 200 mg oral, Day 0 (alone), N=3): 415 ng/mL | Tmax ([1]; human, plasma, po, 200 mg, Tmax Med (Min, Max), 200 mg oral, Day 0 (alone), N=3): 1 h | Tmax ([1]; human, plasma, po, Tmax, text summary over dose levels): 1 to 2 h | PK parameters (AUC and T-HALF) given alone (day 0) versus in combination with cetuximab (day 15) ([1]; in vivo): comparable | P-SFK levels in PBMCs compared to baseline (SFK PY-416 (P-SFK); day 0, 4 hours following dasatinib dosing): tended to be reduced | P-SFK levels in PBMCs compared to baseline (SFK PY-416 (P-SFK); day 0, 8 hours following dasatinib dosing): significantly reduced | P-SFK levels in PBMCs compared to baseline (SFK PY-416 (P-SFK); day 0, 24 hours following dasatinib dosing): did not differ from baseline levels | P-SFK levels in PBMCs compared to same day pre-dasatinib dosing levels (SFK PY-416 (P-SFK); 8 hours, P=0.03): significantly decreased | P-SFK levels in PBMCs compared to same day pre-dasatinib dosing levels (SFK PY-416 (P-SFK); 24 hours, P=0.18): did not differ from pre-dasatinib dosing levels | DLT (patients) (dose level 1, dasatinib 100 mg once daily plus weekly cetuximab, 3 (3) patients (evaluable)): None | DLT (patients) (dose level 2, dasatinib 150 mg once daily plus weekly cetuximab, 19 (14) patients (evaluable)): 1 | DLT (patients) (dose level 2, dasatinib 150 mg once daily plus weekly cetuximab, 19 (14) patients (evaluable), listed as Dasatinib): 1 (Headache) | DLT (patients) (dose level 3, dasatinib 200 mg once daily plus weekly cetuximab, 3 (2) patients (evaluable)): 2 | patients with either a partial response or SD (NSCLC): 43%
